Measurements reported in paper PMC3876027 (Journal of medicinal chemistry, 2013).
Entries after “also recorded” stand apart in the source; their conditions may differ.

Key:
human M1-M4 = test: human mAChR selectivity, functional assay at hM1-M4; type: cell-based; details: for IC50: read-out: hM1-M4 IC50, each of M1, M2, M3, M4
rat M1-M4 = test: rat mAChR selectivity, functional assay at rM1-M4; type: cell-based
hM5 [1] = target: T1, hM5 (Homo sapiens, UniProt P08912); test: [3H]-NMS competition binding in membranes prepared from hM5 cells; details: N=3; compared to atropine
T1 sequence (P08912 1-532): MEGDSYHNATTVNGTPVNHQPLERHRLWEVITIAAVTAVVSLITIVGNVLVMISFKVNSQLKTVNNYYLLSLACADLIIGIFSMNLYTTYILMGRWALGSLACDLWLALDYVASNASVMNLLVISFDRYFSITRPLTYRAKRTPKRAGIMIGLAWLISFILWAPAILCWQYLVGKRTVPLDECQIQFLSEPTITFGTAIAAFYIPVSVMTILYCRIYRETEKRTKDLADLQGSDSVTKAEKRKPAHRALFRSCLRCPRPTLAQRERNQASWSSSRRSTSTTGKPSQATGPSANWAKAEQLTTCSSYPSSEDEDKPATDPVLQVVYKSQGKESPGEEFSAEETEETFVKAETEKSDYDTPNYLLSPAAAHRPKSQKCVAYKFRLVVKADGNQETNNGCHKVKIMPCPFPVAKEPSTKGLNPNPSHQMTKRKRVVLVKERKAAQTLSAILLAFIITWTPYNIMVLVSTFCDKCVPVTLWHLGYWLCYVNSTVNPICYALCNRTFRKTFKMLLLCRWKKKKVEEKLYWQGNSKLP

hM5 [2] = target: T1, hM5; test: [3H]-NMS dissociation kinetics with hM5 cell membranes; type: binding
[3] = hepatic microsomal intrinsic clearance, rat; type: in vitro ADME; details: Sprague-Dawley, liver microsomes
[4] = hepatic microsomal intrinsic clearance, cynomolgus monkey; type: in vitro ADME
[5] = hepatic microsomal intrinsic clearance, human; type: in vitro ADME; details: liver microsomes
[6] = IV pharmacokinetics in male cynomolgus monkey; type: in vivo; details: plasma, 1 mg/kg
[7] = Eurofins radioligand binding panel; details: panel of 68 targets
CB1 = CB1 (Homo sapiens, UniProt P21554); test: subsequent functional assay at CB1
CB1, sequence (P21554 whole entry, species assumed): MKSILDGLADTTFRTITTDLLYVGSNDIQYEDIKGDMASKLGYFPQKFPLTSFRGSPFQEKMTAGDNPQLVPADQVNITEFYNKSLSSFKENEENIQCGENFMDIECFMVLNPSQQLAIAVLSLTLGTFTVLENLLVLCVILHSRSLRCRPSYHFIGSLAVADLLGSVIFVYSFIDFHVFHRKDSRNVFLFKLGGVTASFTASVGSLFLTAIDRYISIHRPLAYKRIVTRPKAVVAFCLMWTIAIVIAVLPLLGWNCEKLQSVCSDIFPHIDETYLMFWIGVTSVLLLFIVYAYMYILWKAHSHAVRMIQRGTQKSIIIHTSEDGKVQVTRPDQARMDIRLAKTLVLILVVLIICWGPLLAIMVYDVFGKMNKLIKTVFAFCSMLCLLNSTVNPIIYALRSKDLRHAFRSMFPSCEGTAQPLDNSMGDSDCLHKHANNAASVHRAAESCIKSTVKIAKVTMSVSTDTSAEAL

human M5 = target: T2, human M5 (Homo sapiens, UniProt P08912); test: functional calcium mobilization assay in CHO cells stably expressing human M5; type: cell-based
T2 sequence (P08912 1-532): T1 sequence (P08912 1-532)

human M1 = target: T3, human M1 (Homo sapiens, UniProt P11229); test: HTS counter-screen in CHO cells expressing human M1; type: cell-based; details: confirmed HTS hit sample
T3 sequence (P11229 1-460): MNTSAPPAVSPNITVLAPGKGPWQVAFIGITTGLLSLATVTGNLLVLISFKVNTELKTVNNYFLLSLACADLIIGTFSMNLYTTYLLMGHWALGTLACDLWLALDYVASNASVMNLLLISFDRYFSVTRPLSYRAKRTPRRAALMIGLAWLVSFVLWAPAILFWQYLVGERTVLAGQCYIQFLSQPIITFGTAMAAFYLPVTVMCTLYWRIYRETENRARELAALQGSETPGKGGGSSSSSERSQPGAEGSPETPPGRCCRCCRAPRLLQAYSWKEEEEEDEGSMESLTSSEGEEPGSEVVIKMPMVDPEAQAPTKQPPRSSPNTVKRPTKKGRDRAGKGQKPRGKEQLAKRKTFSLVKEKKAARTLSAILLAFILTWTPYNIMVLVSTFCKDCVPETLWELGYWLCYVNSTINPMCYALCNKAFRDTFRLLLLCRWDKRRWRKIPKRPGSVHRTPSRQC

human M4 = target: T4, human M4 (Homo sapiens, UniProt P08173); test: HTS counter-screen in CHO cells expressing human M4; type: cell-based; details: confirmed HTS hit sample
T4 sequence (P08173 1-479): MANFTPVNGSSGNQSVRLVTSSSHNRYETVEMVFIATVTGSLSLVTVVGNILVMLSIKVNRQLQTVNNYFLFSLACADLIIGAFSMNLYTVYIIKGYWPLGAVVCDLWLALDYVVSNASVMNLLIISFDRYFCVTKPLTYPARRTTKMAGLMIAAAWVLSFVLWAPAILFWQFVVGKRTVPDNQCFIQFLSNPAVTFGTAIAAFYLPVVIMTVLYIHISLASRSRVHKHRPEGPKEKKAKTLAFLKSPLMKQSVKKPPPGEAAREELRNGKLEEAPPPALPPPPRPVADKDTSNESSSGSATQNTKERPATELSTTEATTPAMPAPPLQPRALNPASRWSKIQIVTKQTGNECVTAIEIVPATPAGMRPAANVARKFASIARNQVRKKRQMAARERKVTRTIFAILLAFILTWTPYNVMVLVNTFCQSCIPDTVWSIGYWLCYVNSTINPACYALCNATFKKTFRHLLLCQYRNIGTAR

Q: With `O=C(c1ccc(F)c(F)c1)N1CCN2C(=O)c3ccccc3C12c1ccccc1` (centres unmarked) [4g] as the compound, how does the IC50 (human M1-M4) read?
A: The IC50 was greater than 30 µM.

Q: Which IC50 (human M1-M4) does the source give for `O=C(c1ccc(F)c(F)c1)N1CCN2C(=O)c3ccccc3C12c1ccc(Cl)cc1` (centres unmarked) [5g] here?
A: The IC50 was greater than 30 µM.

Q: Which “activity at human M1-M4” value (human M1-M4) does the source give for `O=C(c1ccc(F)c(F)c1)N1CCN2C(=O)c3ccccc3[C@@]12c1ccc(Cl)cc1` [compound 8, (S)-9b-(4-chlorophenyl)-1-(3,4-difluorobenzoyl)-2,3-dihydro-1H-imidazo[2,1-a]isoindol-5(9bH)-one] here?
A: Its value is “inactive”.

Q: What about the IC50 (human M1-M4) of the same compound?
A: Its IC50 is greater than 30 µM.

Q: What about the “activity at rat M1-M4” value (rat M1-M4) of the same compound?
A: The value was “inactive”.

Q: And the IC50 (rat M1-M4; read-out: rM1-M4 IC50, each of rat M1, M2, M3, M4)?
A: Its IC50 is greater than 30 µM.

Q: What about the “competition with [3H]-NMS for binding to hM5” value (hM5 [1]) of the same compound?
A: The value was “no competition; also recorded: does not bind at the M5 orthosteric site”.

Q: And the “[3H]-NMS dissociation t1/2” value (hM5 [2]; atropine (+8), N=3)?
A: Its value is 1.15 h.

Q: And the “effect on the dissociation rate of [3H]-NMS” value (hM5 [2]; hM5 cell membranes)?
A: The value was “decreased the dissociation rate”.

Q: And the CLint scaled at 1 µM [3]?
A: The CLint scaled at 1 µM was 24 mL/min/kg.

Q: And the “Predicted CLhep” value ([4]; from CLint in well-stirred model, uncorrected for fraction unbound in plasma)?
A: Its value is 14 mL/min/kg.

Q: What about the CLint scaled ([4]; liver microsomes) of the same compound?
A: The CLint scaled was 20 mL/min/kg.

Q: And the CLint scaled at 1 µM [5]?
A: Its CLint scaled at 1 µM is 2.6 mL/min/kg.

Q: What about the clearance [6] of the same compound?
A: Its clearance is 3 mL/min/kg.

Q: And the “number of targets with significant binding (>50% inhibition @10 μM)” value [7]?
A: The value was 1.

Q: And the “functional activity at CB1” value (CB1)?
A: The value was “no functional activity”.

Q: With `O=C(c1ccc(F)cc1)N1CCN2C(=O)c3ccccc3C12c1ccccc1` (centres unmarked) [compound 1] as the compound, how does the IC50 (human M5) read?
A: The IC50 was greater than 10 µM.

Q: What about the IC50 (human M1-M4) of the same compound?
A: The IC50 was greater than 30 µM.

Q: And the “activity on M1” value (human M1)?
A: Its value is “inactive”.

Q: What about the “activity on M4” value (human M4) of the same compound?
A: Its value is “inactive”.
